According to the supplement of paper PMC10307832:

Assays:
Experiment in all cases: relative viability (nuclei count vs DMSO), 5 days (fraction); higher = more cells survive
[1] = compound: COC1=CC=C(C=C1)CN2C=CC3=C2C=C(C=C3)C(=O)NO + CS(=O)(=O)CCNCc1ccc(-c2ccc3ncnc(Nc4ccc(OCc5cccc(F)c5)c(Cl)c4)c3c2)o1 [Lapatinib] (partner 2 µM)
Procedure, shortened: (§1)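 Cells from lung cancer lines were seeded into 1536-well plates and, one day later, dosed by pin tool. Treatments were either a single drug or a fixed dose of an anchor drug with five library-drug doses (not always all listed) in √10 steps. After 5 days, nuclei were stained in a one-step fixation (final 0.05% Triton X-100, 1% formaldehyde, 1 ug/ml Hoechst) and counted on 4× images, and relative viability is the treated-to-vehicle nuclei ratio, as the median of duplicate plates.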

Veliparib + Dasatinib = compound: C[C@]1(c2nc3c(C(N)=O)cccc3[nH]2)CCCN1 [Veliparib] + Cc1nc(Nc2ncc(C(=O)Nc3c(C)cccc3Cl)s2)cc(N2CCN(CCO)CC2)n1 [Dasatinib] (partner 0.075 µM)
Procedure, shortened: as §1

[2] = compound: COC1=CC=C(C=C1)CN2C=CC3=C2C=C(C=C3)C(=O)NO + CC1(C)CCC(c2ccc(Cl)cc2)=C(CN2CCN(c3ccc(C(=O)NS(=O)(=O)c4ccc(N[C@H](CCN5CCOCC5)CSc5ccccc5)c(S(=O)(=O)C(F)(F)F)c4)cc3)CC2)C1 [Navitoclax] (partner 0.5 µM)
Procedure, shortened: as §1

Veliparib + Luminespib = compound: C[C@]1(c2nc3c(C(N)=O)cccc3[nH]2)CCCN1 [Veliparib] + CCNC(=O)c1noc(-c2cc(C(C)C)c(O)cc2O)c1-c1ccc(CN2CCOCC2)cc1 [Luminespib] (partner 0.01 µM)
Procedure, shortened: as §1

Cell Line | relative viability ([1]; first compound 0.08 µM) | relative viability ([1]; first compound 0.253 µM) | relative viability ([1]; first compound 0.8 µM) | relative viability ([1]; first compound 2.53 µM) | relative viability ([1]; first compound 8 µM) | relative viability (Veliparib + Dasatinib; first compound 0.02 µM) | relative viability (Veliparib + Dasatinib; first compound 0.06325 µM) | relative viability (Veliparib + Dasatinib; first compound 0.2 µM) | relative viability (Veliparib + Dasatinib; first compound 0.6325 µM) | relative viability (Veliparib + Dasatinib; first compound 2 µM) | relative viability ([2]; first compound 0.08 µM) | relative viability ([2]; first compound 0.253 µM) | relative viability ([2]; first compound 0.8 µM) | relative viability ([2]; first compound 2.53 µM) | relative viability ([2]; first compound 8 µM) | relative viability (Veliparib + Luminespib; first compound 0.02 µM) | relative viability (Veliparib + Luminespib; first compound 0.2 µM) | relative viability (Veliparib + Luminespib; first compound 0.6325 µM) | relative viability (Veliparib + Luminespib; first compound 2 µM) | relative viability (Veliparib + Luminespib; first compound 0.06325 µM)
NCI-H23 | 0.383 | 1.21 | 1.06 | 1.01 | 0.88 | 0.622 | 0.71 | 0.753 | 0.75 | 0.87 | 0.675 | 0.689 | 0.896 | 0.985 | 0.728 | 0.168 | 0.251 | 0.24 | 0.228 | 
Calu-6 | 0.432 | 1.05 | 1.06 | 1.1 | 1.03 |  |  |  |  |  | 0.809 | 0.84 | 0.805 | 0.828 | 0.698 |  |  |  |  | 
NCI-H1623 |  |  |  |  |  |  | 0.458 | 0.598 | 0.524 | 0.462 |  |  |  |  |  |  | 0.596 | 0.434 | 0.409 | 0.467
LC-2-ad | 0.259 | 0.948 | 0.972 | 0.931 | 0.92 |  | 0.423 | 0.669 | 0.556 | 0.388 | 0.421 | 0.427 | 0.561 | 0.527 | 0.552 |  | 1.04 | 0.982 | 1.03 | 0.947
LCLC-103H |  |  |  |  |  | 0.5 | 0.469 | 0.449 | 0.495 | 0.482 |  |  |  |  |  | 0.987 | 1.04 | 0.907 | 0.992 | 0.888
NCI-H1299 | 0.959 | 0.979 | 0.969 | 0.934 | 0.923 |  |  |  |  |  | 1.01 | 1.06 | 1.07 | 1.07 | 1.02 |  |  |  |  | 
NCI-H441 |  |  |  |  |  | 0.502 | 0.572 | 0.591 | 0.558 | 0.691 | 0.611 | 0.708 | 0.701 | 0.523 | 0.595 | 0.316 | 0.377 | 0.339 | 0.375 | 0.288
EBC-1 |  | 0.226 | 0.211 | 0.232 | 0.208 |  |  |  |  |  | 0.399 | 0.406 | 0.378 | 0.304 | 0.313 |  |  |  |  | 
NCI-H661 |  | 0.471 | 0.471 | 0.443 | 0.402 | 0.886 | 0.846 | 0.777 | 0.86 | 0.869 |  |  |  |  |  | 0.863 | 0.839 | 0.785 | 0.934 | 0.931
HCC-366 |  | 0.992 | 1.06 | 1.04 | 1.07 | 0.524 | 0.514 | 0.582 | 0.572 | 0.588 |  | 1.05 | 1.14 | 1.06 | 1.13 |  |  |  |  | 
ABC-1 | 0.618 | 1.13 | 1.21 | 1.3 | 1.13 |  | 0.355 | 0.604 | 0.591 | 0.367 |  |  |  |  |  |  | 0.377 | 0.422 | 0.524 | 0.543
